Measured values published in patent US20230293517A1, “ANTAGONIST COMPOUNDS” (AdoRx Therapeutics Limited, priority 2020, published 2023).

How the values were obtained:
[1] = target: human Adenosine A2b receptor (Homo sapiens (Human), UniProt P29275); assay: Adenosine receptor TR-FRET binding assay (A2b); conditions: TR-FRET, inhibition of binding of 30 nM CA200645, CHO cell membranes
Outline: (§1)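 Compounds were serially diluted 1:3 in DMSO, then incubated with CHO membranes bearing Tb-tagged human receptor plus CA200645 (A2b 30 nM; A1, A2a, A3 100 nM) for 2 h at room temperature. Time-resolved FRET was read, non-specific binding subtracted using 10 μM XAC, and Ki calculated.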

[2] = tested on: CD8+T cells in human whole blood; assay: Measurement of pCREB in CD8+T cells in human whole blood; assay type: cell-based; conditions: 3 μM NECA, rolipram
Outline: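 Heparinised human whole blood pre-incubated 20 min at 37 °C with serially diluted A2a antagonists plus rolipram, then stimulated 60 min with 3 μM NECA (final). After fixation and red-cell lysis, white cells were permeabilized and stained for phospho-CREB and CD8; pCREB in CD8+ T cells measured by flow cytometry.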

[3] = target: human Adenosine A3 receptor (Homo sapiens (Human), UniProt P0DMS8); assay: Adenosine receptor TR-FRET binding assay (A3); conditions: inhibition of binding of 100 nM CA200645, CHO cell membranes
Sequence of human Adenosine A3 receptor (P0DMS8 whole entry): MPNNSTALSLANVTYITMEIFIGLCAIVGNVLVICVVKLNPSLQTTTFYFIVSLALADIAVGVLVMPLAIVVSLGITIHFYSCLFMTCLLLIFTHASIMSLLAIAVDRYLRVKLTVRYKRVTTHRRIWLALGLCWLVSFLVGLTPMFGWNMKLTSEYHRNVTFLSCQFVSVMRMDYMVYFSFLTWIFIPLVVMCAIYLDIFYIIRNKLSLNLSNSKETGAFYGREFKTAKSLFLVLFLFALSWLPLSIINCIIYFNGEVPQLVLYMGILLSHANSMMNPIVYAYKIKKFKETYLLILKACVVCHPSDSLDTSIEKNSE
Outline: as §1

[4] = target: human Adenosine A2a receptor (Homo sapiens (Human), UniProt P29274); assay: Adenosine receptor TR-FRET binding assay (A2a); conditions: inhibition of binding of 100 nM CA200645, CHO cell membranes
Sequence of human Adenosine A2a receptor (P29274 whole entry): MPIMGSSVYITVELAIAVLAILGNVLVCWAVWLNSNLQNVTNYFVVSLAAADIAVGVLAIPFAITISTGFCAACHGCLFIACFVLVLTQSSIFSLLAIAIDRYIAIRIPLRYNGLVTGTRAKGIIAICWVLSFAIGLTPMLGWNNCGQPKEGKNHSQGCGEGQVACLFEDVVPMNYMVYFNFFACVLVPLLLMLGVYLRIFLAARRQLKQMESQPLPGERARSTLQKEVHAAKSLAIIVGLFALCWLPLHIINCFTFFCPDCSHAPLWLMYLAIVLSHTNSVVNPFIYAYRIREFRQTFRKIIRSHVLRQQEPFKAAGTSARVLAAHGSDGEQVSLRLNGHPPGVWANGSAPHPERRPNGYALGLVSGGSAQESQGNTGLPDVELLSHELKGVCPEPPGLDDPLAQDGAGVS
Outline: as §1

[5] = tested on: immature monocyte-derived dendritic cells (MoDC); assay: MoDC pCREB assay; assay type: cell-based, human; conditions: Homo sapiens, Dendritic cell; pCREB in immature MoDC, 1 μM NECA, rolipram
Description: Monocytes are isolated from human whole blood using CD14 microbeads (Miltenyi Biotec 130-050-201) and differentiated to immature monocyte-derived dendritic cells (MoDC) by culture for 5 days in Mo-DC Differentiation Medium (Miltenyi Biotec 130-094-812). MoDCs are seeded into fresh medium into U bottomed 96 well culture plates and pre-incubated at 37° C. with serial dilutions of A2A/B antagonists for 15 min. At the same time the cells are co-incubated with the phosphodiesterase inhibitor rolipram (final concentration of 20 µM) to amplify the subsequent pCREB response. Adenosine receptor agonist NECA is then added at 1 μM final concentration, leading to an increase in CREB phosphorylation. Following a 45 min incubation at 37° C., the cells are fixed, permeabilized and stained with directly conjugated fluorescent antibodies to phospho-CREB (Alexa Fluor 488), CD209 (PerCP-Cy5.5) and CD86 (APC). Samples are analysed by FACS to measure fluorescence in corresponding channels, and also forward and Side scatter. The population of CD209+/CD86− low cells corresponding to immature dendritic cells is gated for analysis of pCREB levels.
Approximately 5% of the analysed cells are positive for detection of pCREB in the absence of agonist stimulation, representing the background signalling of all pathways upstream of CREB. Following NECA stimulation this is increased to ˜80% pCREB+ve, and this increase is essentially fully reversible by A2B or dual A2A/B antagonists.
IC50 is represented as the point of inflection of a sigmoidal curve

human PBMCs = assay: CD3/CD28 stimulated IL-2 release NECA reversal assay in human PBMCs; assay type: cell-based; conditions: PBMC, 1 uM NECA, 24 hours, IL-2 in culture supernatant
Outline: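 PBMCs from citrated healthy-donor blood plated at 50,000 cells/well on 1 ug/ml CD3 antibody with 1 ug/ml CD28 antibody, 1 uM NECA and 0.003-10 μM antagonist (final), 24 h at 37° C. Supernatant IL-2 measured by MSD immunoassay; % inhibition set against no-NECA control wells as 100%.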

[6] = target: human Adenosine A1 receptor (Homo sapiens (Human), UniProt P30542); assay: Adenosine receptor TR-FRET binding assay (A1); conditions: inhibition of binding of 100 nM CA200645, CHO cell membranes
Sequence of human Adenosine A1 receptor (P30542 whole entry): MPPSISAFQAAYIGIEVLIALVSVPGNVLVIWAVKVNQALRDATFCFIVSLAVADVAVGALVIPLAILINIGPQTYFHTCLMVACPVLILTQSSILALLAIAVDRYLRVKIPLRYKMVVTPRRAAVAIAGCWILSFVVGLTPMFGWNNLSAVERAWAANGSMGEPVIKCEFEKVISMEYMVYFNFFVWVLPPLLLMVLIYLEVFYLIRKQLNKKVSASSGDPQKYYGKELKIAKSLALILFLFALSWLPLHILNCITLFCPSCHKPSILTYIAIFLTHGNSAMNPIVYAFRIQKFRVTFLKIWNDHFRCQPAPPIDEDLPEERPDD
Outline: as §1

Sequence of human Adenosine A2b receptor (P29275 whole entry): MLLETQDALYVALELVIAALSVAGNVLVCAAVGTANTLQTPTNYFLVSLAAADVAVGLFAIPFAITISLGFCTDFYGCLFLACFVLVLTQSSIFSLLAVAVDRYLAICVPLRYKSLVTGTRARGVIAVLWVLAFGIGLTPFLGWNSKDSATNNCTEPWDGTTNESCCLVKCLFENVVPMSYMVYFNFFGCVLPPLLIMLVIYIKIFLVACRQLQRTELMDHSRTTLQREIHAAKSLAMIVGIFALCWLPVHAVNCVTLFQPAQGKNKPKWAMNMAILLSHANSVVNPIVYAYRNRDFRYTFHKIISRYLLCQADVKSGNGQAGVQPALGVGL

| Structure (SMILES) | Ki [1] [nM] | IC50 [2] [nM] | Ki [3] [nM] | Ki [4] [nM] | IC50 [5] [nM] | IC50 (human PBMCs) [nM] | Ki [6] [nM] |
| --- | --- | --- | --- | --- | --- | --- | --- |
| Cc1cc(-c2sc(NC(=O)N3CC4(COC4)C3)nc2-c2cccc(C#N)c2)cc(CF)n1 [Example 16.6] | 1.6 | 100 | 985 | 0.16 | 13 | 2.6 | 42 |
| Cc1cc(-c2sc(NC(=O)N3CCC(C#N)(C#N)CC3)nc2-c2cccc(C#N)c2)cc(CO)n1 [Example 9.8] | 2.4 | 10 | 615 | 0.37 | 8 | 0.7 | 24 |
| Cc1cc(-c2sc(NC(=O)N3CC[C@@H](C(C)(C)O)C3)nc2-c2cccc(C#N)c2)cc(C)n1 [Example 6.36, (3R)-N-[4-(3-Cyanophenyl)-5-(2,6-dimethyl-4-pyridyl)thiazol-2-yl]-3-(1-hydroxy-1-methyl-ethyl)pyrrolidine-1-carboxamide] | 4.2 | 90 | 377 | 0.87 | 16 | 4.2 | 133 |
| Cc1cc(-c2sc(NC(=O)N3CCC4(CC3)C(=O)N(C)C(=O)N4C)nc2-c2cccc(C#N)c2)cc(C)n1 [Example 4.28, N-[4-(3-Cyanophenyl)-5-(2,6-dimethyl-4-pyridyl)thiazol-2-yl]-1,3-dimethyl-2,4-dioxo-1,3,8-triazaspiro[4.5]decane-8-carboxamide] | 2.4 | 670 | 77 | 0.48 | 10 | 4.7 | 135 |
| Cc1cc(-c2sc(NC(=O)N3CC4(COC4)C3)nc2-c2cccc(C#N)c2)cc(C(F)(F)F)n1 [Example 6.99, N-[4-(3-Cyanophenyl)-5-[2-methyl-6-(trifluoromethyl)-4-pyridyl]thiazol-2-yl]-2-oxa-6-azaspiro[3.3]heptane-6-carboxamide] | 0.7 | 40 | 77 | 0.13 | 8 | 0.7 | 14 |
| Cc1cc(-c2sc(NC(=O)N3CC[C@H](C#N)C3)nc2-c2cccc(C#N)c2)cc(C)n1 [Example 4.8, (3S)-3-Cyano-N-[4-(3-cyanophenyl)-5-(2,6-dimethyl-4-pyridyl)thiazol-2-yl]pyrrolidine-1-carboxamide] | 1.5 | 40 | 180 | 0.37 | 12 | 1.1 | 17 |
| Cc1cc(-c2sc(NC(=O)N3CC(C)(C#N)C3)nc2-c2cccc(C#N)c2)cc(C)n1 [Example 6.7, 3-Cyano-N-[4-(3-cyanophenyl)-5-(2,6-dimethyl-4-pyridyl)thiazol-2-yl]-3-methyl-azetidine-1-carboxamide] | 0.7 | 20 | 281 | 0.11 | 7 | 0.8 | 14 |
| Cc1cc(-c2sc(NC(=O)N3CCN(C)CC3)nc2-c2cccc(C#N)c2)cc(Cl)n1 [Example 3.6] | 1.5 | 990 | 481 | 0.64 | 51 | 7.5 | 88 |
| Cc1cc(-c2sc(NC(=O)N3CC(C)(C#N)C3)nc2-c2cccc(C#N)c2)c(F)c(C)n1 [Example 6.68, 3-Cyano-N-[4-(3-cyanophenyl)-5-(3-fluoro-2,6-dimethyl-4-pyridyl)thiazol-2-yl]-3-methyl-azetidine-1-carboxamide] | – | 50 | – | – | 3 | 3.1 | – |
| Cc1cc(-c2sc(NC(=O)N3CC4(COC4)C3)nc2-c2cccc(C#N)c2)cc(C2CC2)n1 [Example 16.7] | 1.6 | 60 | 478 | 0.13 | 14 | 0.9 | 13 |
| Cc1cc(-c2sc(NC(=O)N3CCC(C)(C#N)CC3)nc2-c2cccc(C#N)c2)cc(C)n1 [Example 6, 4-Cyano-N-[4-(3-cyanophenyl)-5-(2,6-dimethyl-4-pyridyl)thiazol-2-yl]-4-methyl-piperidine-1-carboxamide] | 1.1 | 70 | 283 | 0.12 | 9 | 0.6 | 37 |
| Cc1cc(-c2sc(NC(=O)N3CC4(COC4)C3)nc2-c2cccc(C#N)c2)cc(C(C)(C)O)n1 [Example 12.2, N-[4-(3-Cyanophenyl)-5-[2-(1-hydroxy-1-methyl-ethyl)-6-methyl-4-pyridyl]thiazol-2-yl]-2-oxa-6-azaspiro[3.3]heptane-6-carboxamide] | 8.4 | 10 | 1520 | 0.28 | 55 | 0.4 | 6 |
| Cc1cc(-c2sc(NC(=O)N3CC4(COC4)C3)nc2-c2cccc(C#N)c2C)cc(C)n1 [Example 6.79, N-[4-(3-Cyano-2-methyl-phenyl)-5-(2,6-dimethyl-4-pyridyl)thiazol-2-yl]-2-oxa-6-azaspiro[3.3]heptane-6-carboxamide] | – | 350 | – | – | 83 | 14.5 | – |
| COCc1cc(-c2sc(NC(=O)N3CC4(COC4)C3)nc2-c2cccc(C#N)c2)cc(C)n1 [Example 21, N-[4-(3-Cyanophenyl)-5-[2-(methoxymethyl)-6-methyl-4-pyridyl]thiazol-2-yl]-2-oxa-6-azaspiro[3.3]heptane-6-carboxamide] | 3.9 | 20 | 1560 | 0.21 | 19 | – | 29 |
| Cc1cc(-c2sc(NC(=O)N3CC[C@@](C)(C#N)C3)nc2-c2cccc(C#N)c2)cc(C)n1 [Example 27a, (3R)-3-Cyano-N-[4-(3-cyanophenyl)-5-(2,6-dimethyl-4-pyridyl)thiazol-2-yl]-3-methyl-pyrrolidine-1-carboxamide] | 1.2 | 80 | 313 | 0.54 | 10 | – | 37 |
| Cc1cc(-c2sc(NC(=O)N3CCC4(CC3)CNC4=O)nc2-c2cccc(C#N)c2)c(F)c(C)n1 [Example 6.69, N-[4-(3-Cyanophenyl)-5-(3-fluoro-2,6-dimethyl-4-pyridyl)thiazol-2-yl]-3-oxo-2,7-diazaspiro[3.5]nonane-7-carboxamide] | – | 430 | – | – | 3 | 10.9 | – |
| Cc1cc(-c2sc(NC(=O)N3CC4(COC4)C3)nc2-c2cccc(C#N)c2)cc(C(F)F)n1 [Example 6.97, N-[4-(3-Cyanophenyl)-5-[2-(difluoromethyl)-6-methyl-4-pyridyl]thiazol-2-yl]-2-oxa-6-azaspiro[3.3]heptane-6-carboxamide] | 1.1 | 50 | 250 | 0.23 | 13 | – | 17 |
| Cc1cc(-c2sc(NC(=O)N3CCC4(CC3)CNC(=O)O4)nc2-c2cccc(C#N)c2)cc(C)n1 [Example 6.56, N-[4-(3-Cyanophenyl)-5-(2,6-dimethyl-4-pyridyl)thiazol-2-yl]-2-oxo-1-oxa-3,8-diazaspiro[4.5]decane-8-carboxamide] | – | 70 | – | – | 7 | 3.5 | – |
| CC(C)(O)c1cc(-c2sc(NC(=O)N3CC4(COC4)C3)nc2-c2cccc(C#N)c2)cc(Cl)n1 [Example 23, N-[5-[2-Chloro-6-(1-hydroxy-1-methyl-ethyl)-4-pyridyl]-4-(3-cyanophenyl)thiazol-2-yl]-2-oxa-6-azaspiro[3.3]heptane-6-carboxamide] | 5.7 | 20 | 1840 | 0.16 | 182 | – | 9 |
